Measured values as given in ChEMBL document CHEMBL1130757, “Synthetic arabinofuranosyl oligosaccharides as mycobacterial arabinosyltransferase substrates” (1998).

Experiments:
Assay type in all cases: functional
[1] = tested on: Mycolicibacterium smegmatis; assay: Average value of incorporation for recognition of mycobacterial arabinosyl transferase in experiments 1, 2 and 3 (%incorporation = 14)
[2] = tested on: Mycolicibacterium smegmatis; assay: Tested for recognition of mycobacterial arabinosyl transferase incubated with 14C1 labeled decaprenol arabinofuranosyl phosphate in the presence of membrane extracts from Mycobacterium smegmatis in experiment 3 (%incorporation = 12.4)
[3] = tested on: Mycolicibacterium smegmatis; assay: Tested for recognition of mycobacterial arabinosyl transferase incubated with 14C1 labeled decaprenol arabinofuranosyl phosphate in the presence of membrane extracts from Mycobacterium smegmatis in experiment 1 (%incorporation = 13.8)
[4] = tested on: Mycolicibacterium smegmatis; assay: Tested for recognition of mycobacterial arabinosyl transferase incubated with 14C1 labeled decaprenol arabinofuranosyl phosphate in the presence of membrane extracts from Mycobacterium smegmatis in experiment 2 (%incorporation = 15.8)
[5] = tested on: Mycolicibacterium smegmatis; assay: Average value of incorporation for recognition of mycobacterial arabinosyl transferase in experiments 1 and 2 (%incorporation = 16.1)
[6] = tested on: Mycolicibacterium smegmatis; assay: Tested for recognition of mycobacterial arabinosyl transferase incubated with 14C1 labeled decaprenol arabinofuranosyl phosphate in the presence of membrane extracts from Mycobacterium smegmatis in experiment 1 (%incorporation = 16.4)
[7] = tested on: Mycolicibacterium smegmatis; assay: Tested for recognition of mycobacterial arabinosyl transferase incubated with 14C1 labeled decaprenol arabinofuranosyl phosphate in the presence of membrane extracts from Mycobacterium smegmatis in experiment 2 (%incorporation = 15.2)
[8] = tested on: Mycolicibacterium smegmatis; assay: Tested for recognition of mycobacterial arabinosyl transferase incubated with 14C1 labeled decaprenol arabinofuranosyl phosphate in the presence of membrane extracts from Mycobacterium smegmatis in experiment 2 (%incorporation = 12.9)
[9] = tested on: Mycolicibacterium smegmatis; assay: Average value of incorporation for recognition of mycobacterial arabinosyl transferase in experiments 1, 2 and 3 (%incorporation = 12.7)
[10] = tested on: Mycolicibacterium smegmatis; assay: Tested for recognition of mycobacterial arabinosyl transferase incubated with 14C1 labeled decaprenol arabinofuranosyl phosphate in the presence of membrane extracts from Mycobacterium smegmatis in experiment 1 (%incorporation = 12.9)
[11] = tested on: Mycolicibacterium smegmatis; assay: Tested for recognition of mycobacterial arabinosyl transferase incubated with 14C1 labeled decaprenol arabinofuranosyl phosphate in the presence of membrane extracts from Mycobacterium smegmatis in experiment 2 (%incorporation = 16.1)
[12] = tested on: Mycolicibacterium smegmatis; assay: Tested for recognition of mycobacterial arabinosyl transferase incubated with 14C1 labeled decaprenol arabinofuranosyl phosphate in the presence of membrane extracts from Mycobacterium smegmatis in experiment 1 (%incorporation = 19.1)
[13] = tested on: Mycolicibacterium smegmatis; assay: Tested for recognition of mycobacterial arabinosyl transferase incubated with 14C1 labeled decaprenol arabinofuranosyl phosphate in the presence of membrane extracts from Mycobacterium smegmatis in experiment 3 (%incorporation = 16.4)
[14] = tested on: Mycolicibacterium smegmatis; assay: Average value of incorporation for recognition of mycobacterial arabinosyl transferase in experiments 1, 2 and 3 (%incorporation = 17.2)
[15] = tested on: Mycolicibacterium smegmatis; assay: Tested for recognition of mycobacterial arabinosyl transferase incubated with 14C1 labeled decaprenol arabinofuranosyl phosphate in the presence of membrane extracts from Mycobacterium smegmatis in experiment 1 (%incorporation = 21.9)
[16] = tested on: Mycolicibacterium smegmatis; assay: Tested for recognition of mycobacterial arabinosyl transferase incubated with 14C1 labeled decaprenol arabinofuranosyl phosphate in the presence of membrane extracts from Mycobacterium smegmatis in experiment 3 (%incorporation = 18.2)
[17] = tested on: Mycolicibacterium smegmatis; assay: Average value of incorporation for recognition of mycobacterial arabinosyl transferase in experiments 1, 2 and 3 (%incorporation = 20.8)
[18] = tested on: Mycolicibacterium smegmatis; assay: Tested for recognition of mycobacterial arabinosyl transferase incubated with 14C1 labeled decaprenol arabinofuranosyl phosphate in the presence of membrane extracts from Mycobacterium smegmatis in experiment 2 (%incorporation = 22.5)

CO[C@H]1O[C@H](CO[C@H]2O[C@H](CO)[C@@H](O[C@H]3O[C@H](CO)[C@@H](O)[C@@H]3O)[C@@H]2O)[C@@H](O)[C@@H]1O
Average [1]: 5600 c.p.m. | Incorporation [2]: 4960 c.p.m. | Incorporation [3]: 5513 c.p.m. | Incorporation [4]: 6326 c.p.m.

CO[C@H]1O[C@H](CO[C@H]2O[C@H](CO[C@H]3O[C@H](CO)[C@@H](O)[C@@H]3O)[C@@H](O[C@H]3O[C@H](CO)[C@@H](O)[C@@H]3O)[C@@H]2O)[C@@H](O)[C@@H]1O
Average [5]: 6433 c.p.m. | Incorporation [6]: 6540 c.p.m. | Incorporation [7]: 6092 c.p.m.

CO[C@H]1O[C@H](CO[C@H]2O[C@H](CO)[C@@H](O)[C@@H]2O)[C@@H](O)[C@@H]1O
Incorporation [8]: 5148 c.p.m. | Incorporation [2]: 4990 c.p.m. | Average [9]: 5095 c.p.m. | Incorporation [10]: 5148 c.p.m.

CO[C@H]1O[C@H](CO)[C@@H](O[C@H]2O[C@H](CO)[C@@H](O)[C@@H]2O)[C@@H]1O
Incorporation [11]: 6432 c.p.m. | Incorporation [12]: 7632 c.p.m. | Incorporation [13]: 6563 c.p.m. | Average [14]: 6876 c.p.m.

CO[C@H]1O[C@H](CO[C@H]2O[C@H](CO[C@H]3O[C@H](CO)[C@@H](O)[C@@H]3O)[C@@H](O)[C@@H]2O)[C@@H](O)[C@@H]1O
Incorporation [15]: 8732 c.p.m. | Incorporation [16]: 7271 c.p.m. | Average [17]: 8338 c.p.m. | Incorporation [18]: 9011 c.p.m.
